According to US10806726B2, “Methods of using indazole-3-carb oxamides and their use as Wnt/B-catenin signaling pathway inhibitors” (Samumed, LLC, priority 2016, dated 2020):
pEC50: −log10 of the molar value. Like-named read-outs stand apart in the source and are kept apart here.

Key:
[1] = tested on: primary human mesenchymal stem cells (hMSCs); test: Tenocyte differentiation screening in hMSCs (SCXA-positive cells, 4 days); type: cell-based; details: 96 h, fold change over DMSO
Summary of the method: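 Primary hMSCs at passage 3–6 were treated with compound, fixed and immunostained for SCXA, and SCXA-positive cells per well were counted by imaging. Counts were normalized to DMSO wells as fold change, averaged over triplicates, and EC50 was fitted, with high-dose values manually corrected for solubility.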

[2] = tested on: TNFα production in THP-1 cells; test: Cytokine Production Assay, LPS-induced TNFα in THP-1 cells; type: cell-based; details: Homo sapiens; THP-1, LPS 50 ng/mL 5 hours, 2 independent assays; read-out: average EC50, inhibition of TNFα production
Procedure: THP-1 cells were cultured in basal media with 1% FBS for 24 hours before the start of the assay. THP-1 cells were plated at 6×10e^4 cells/well and treated with DMSO (vehicle control) or compound 175 at 10 μM highest test concentration and 2 to 3.5-fold serial dilutions up to 8 concentrations (10, 3.5, 1, 0.5, 0.1, 0.035, 0.01, 0.005 μM). For the TNFα assay, 50 ng/mL of LPS was added to the wells after 2 hours to induce cytokine production, and cells were incubated for 5 hours at 37° C. For the IL6 assay, 500 ng/ml of LPS was added after 2 hours and cells were incubated for 22 hours at 37° C. Plates were spun in a centrifuge for 1 minute at 10,000 rpm and supernatants were collected for ELISA. Supernatants were diluted 1:1 for the TNFα assay and 1:4 for the IL6 assay using the assay medium. ELISA was performed using Human TNF-α ELISA MAX™ Deluxe (Catalog #430204, Biolegend, San Diego, Calif.) and Human IL-6 ELISA MAX™ Deluxe (Catalog #430504, Biolegend, San Diego, Calif.) kits. […] Following several washes to remove unbound avidin-HRP, the TMB substrate was added and the plates were read on the Cytation 3 plate reader (Biotek Inc., Winooski, Vt.) at an absorbance of 450 nm with correction at 570 nm. […] Inhibition profile and EC50 was calculated using Prism 5 (GraphPad Software Inc, La Jolla, Calif., USA). […]

[3] = Pharmacokinetics after single topical application in rats (plasma, tendon, skin); type: in vivo, rat; details: for AUC(0-t) / Cmax / Tmax: topical or ocular; for Kp: tendon and plasma
Procedure: The compound 175 formulation was applied once topically to each ankle of the hind leg of each animal at 60 μL volume (30 μL/cm^2×2 cm^2) over the area of the Achilles tendon.
Blood samples (˜0.5 mL) were collected via cardiac puncture, into tubes containing K2EDTA as anticoagulant, at 1, 2, 4, 7 and 24 hours post-dose from 2 animals per timepoint (n=2). Plasma was harvested and frozen at −80° C. for bioanalysis.
The Achilles tendons from both ankles were collected following euthanasia at 1, 2, 4, 7 and 24 hours post-dose from 2 animals per timepoint (n=4) from all groups. Skin tissue samples were collected from the dose-site at 7 and 24 hours post-dose from 2 animals per timepoint (n=4) in Group 2. Tissues were frozen at −80° C. for bioanalysis. Blood and tissue collection schedule is outlined in Table 8 below.
Skin tissue samples were processed using the following procedures: 1) Weigh tissue and homogenize using cryoPrep (Covaris); 2) Add 9× volume of Acetonitrile:Methanol (70:30) and vortex for one hour; 3) Aliquot 100 μL of tissue homogenate into 96 microtube polypropylene plate; 4) Add 10 μL of working standard to each standard; 5) Add 10 μL of methanol in all samples and blanks; 6) Add 10 μL of internal standard (IS) to all tubes except blanks; 7) Spin in centrifuge at 3000 rpm for 10 minutes; and 8) Transfer 100 μL of supernatant into 96-well plate containing 150 μL of water. Cap and vortex for LC/MS/MS analysis.
The chromatograms of the samples were integrated and calibrated using Analyst 1.6.2 (AB Sciex, Redwood City, Calif.). Linear regression with 1/x^2 weighting and internal standardization was used for standard calibration, with an acceptance criterion of ±30% of nominal standard concentration. The lower limit of quantitation (LLOQ) was 2.00 ng/mL (plasma), 6.00 ng/g (tendon) and 25.0 ng/g (skin). Pharmacokinetic parameters were estimated by noncompartmental analysis from individual concentration versus time profiles using Pheonix WinNonlin version 6.3 (Certara, Inc., Princeton, N.J.). The time to maximum concentration (tmax) and the maximum concentration (Cmax) were determined based on measured plasma and tissue concentrations. The area under the curve (AUC0-last) was calculated using the linear trapezoidal rule.

[4] = Tendon, Group 1, 1 mg/mL, 1% BA, single topical
[5] = Tendon, Group 2, 10 mg/mL, 1% BA, single topical
[6] = Tendon, Group 3, 10 mg/mL, no preservative (0.5% Tween 80), single topical
[7] = male, Sprague Dawley, rat, plasma, 1 mg/mL, Plasma, Group 1, 1 mg/mL, 1% BA, single topical
[8] = male, Sprague Dawley, rat, plasma, 10 mg/mL, Plasma, Group 2, 10 mg/mL, 1% BA, single topical
[9] = male, Sprague Dawley, rat, plasma, 10 mg/mL, Plasma, Group 3, 10 mg/mL, no preservative (0.5% Tween 80), single topical
[10] = male, Sprague Dawley, rat, tendon, 1 mg/mL, Tendon, Group 1, 1 mg/mL, 1% BA, single topical
[11] = male, Sprague Dawley, rat, tendon, 10 mg/mL, Tendon, Group 2, 10 mg/mL, 1% BA, single topical
[12] = male, Sprague Dawley, rat, tendon, 10 mg/mL, Tendon, Group 3, 10 mg/mL, no preservative (0.5% Tween 80), single topical

In the case of `COc1ccc(NC(=O)c2n[nH]c3ccc(-c4cncc(CN5CCCCC5)c4)cc23)cn1` [compound 175, N-(6-Methoxypyridin-3-yl)-5-(5-(piperidin-1-ylmethyl)pyridin-3-yl)-1H-indazole-3-carboxamide], the pEC50 [1] was 4.98, the pEC50 [2] was 6.26 to 6.47 and the “plasma exposure of Group 3 relative to Group 2” value ([3]; 10 mg/mL without BA (Tween 80) vs 10 mg/mL with BA) was roughly 0.2 ×. The “tendon exposure of Group 3 relative to Group 2” value ([3]; 10 mg/mL without BA vs 10 mg/mL with BA) was roughly 4 ×, the “skin concentration relative to tendon concentrations” value ([3]; 7 and 24 hours post-dose, Group 2) was “roughly 1000 ×” and the “increase in tendon AUC(0-last) for a 10× dose-increment” value ([3]; Group 2 vs Group 1, formulations containing BA) was 3.4 ×. For the same compound, the “last” value ([3]; Plasma, Group 1, 1 mg/mL, 1% BA, single topical) was 1.00 h, the “last” value ([3]; Plasma, Group 2, 10 mg/mL, 1% BA, single topical) was 7.00 h and the “last” value ([3]; Plasma, Group 3, 10 mg/mL, no preservative (0.5% Tween 80), single topical) was 7.00 h. For the same compound, the “last” value ([3]; Skin, Group 2, 10 mg/mL, 1% BA, single topical) was 24.0 h, the “AUC(0-last)” value [3, 4] was 2164 ng·h/g and the “last” value [3, 4] was 24.0 h. For the same compound, the “AUC(0-last)” value [3, 5] was 7270 ng·h/g, the “last” value [3, 5] was 24.0 h and the “AUC(0-last)” value [3, 6] was 28077 ng·h/g. For the same compound, the “last” value [3, 6] was 24.0 h, the AUC(0-t) [3, 7] was 0.65 ng·h/mL and the Cmax [3, 7] was 1.3 ng/mL. For the same compound, the Tmax [3, 7] was 1 h, the AUC(0-t) [3, 8] was 36.1 ng·h/mL and the Cmax [3, 8] was 10.6 ng/mL. For the same compound, the Tmax [3, 8] was 4 h, the AUC(0-t) [3, 9] was 6.79 ng·h/mL and the Cmax [3, 9] was 1.94 ng/mL. The Tmax [3, 9] was 7 h, the Tmax ([3]; male, Sprague Dawley, rat, skin, 10 mg/mL, Skin, Group 2, 10 mg/mL, 1% BA, single topical) was 7 h and the Cmax ([3]; male, Sprague Dawley, rat, skin, 10 mg/mL, Skin, Group 2, 10 mg/mL, 1% BA, above quantitation limit (AQL > 25000 ng/g), reported as estimated) was 209000 ng/g. The concentration at 7 h ([3]; male, Sprague Dawley, rat, skin, topical, 7 hours post-dose, Group 2, 10 mg/mL containing BA, above quantitation limit, estimated) was 209000 ng/g, the concentration at 24 h ([3]; male, Sprague Dawley, rat, skin, topical, 24 hours post-dose, Group 2, 10 mg/mL containing BA, above quantitation limit, estimated) was 113000 ng/g and the Kp ([3]; male, Sprague Dawley, rat, topical, 1 mg/mL, Tendon to plasma, Group 1, 1 mg/mL, 1% BA, read-out: Tissue/Plasma AUC Ratio) was 3330. It also gave a Kp ([3]; male, Sprague Dawley, rat, topical, 10 mg/mL, Tendon to plasma, Group 2, 10 mg/mL, 1% BA, read-out: Tissue/Plasma AUC Ratio) of 202, a Kp ([3]; male, Sprague Dawley, rat, topical, 10 mg/mL, Tendon to plasma, Group 3, 10 mg/mL without BA, read-out: Tissue/Plasma AUC Ratio) of 4140 and a Kp ([3]; male, Sprague Dawley, rat, topical, all dose groups, single topical administration, read-out: tendon to plasma ratios, range across groups) of 202 to 4140. It also gave a Cmax [3, 10] of 519 ng/g, a Tmax [3, 10] of 1 h and a Cmax [3, 11] of 1930 ng/g. The Tmax [3, 11] was 1 h, the Cmax [3, 12] was 7050 ng/g and the Tmax [3, 12] was 1 h.
